# Experimental data reported in patent publication US20190083521A1, “COMBINATION THERAPY FOR TREATING CANCER” (Epizyme, Inc., priority 2014, published 2019).
# Tests used:
# MV4-11 (MLL-AF4) cells = assay: Combination proliferation assay with Compound A2 (CellTiter-Glo, Chou-Talalay CI); format: cell-based, human; conditions: MV4-11 (MLL-AF4); 7 Day Cotreatment Model
# Outline: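 Viability by CellTiter-Glo ATP luminescence; fraction affected versus DMSO controls; combination index by Chou-Talalay method (CI <1 synergy, >1 antagonism).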
# [1] = test system: SKM-1 (non-MLL-rearranged AML) cells; assay: as above; format: cell-based, human; conditions: SKM-1; Compound A2 concentrations greater than 1000 nM
# Description: Graphs representing values of combination index (CI) versus Fractional effect (Fa) known as Fa-CI plots were generated and synergy was evaluated.
# (§1) Viability was determined using CellTiter-Glo® (Promega).
# MV4-11 cells were maintained in IMDM supplemented with 10% fetal bovine serum. MOLM-13 and SKM-1 cells were maintained in Roswell Park Memorial Institute medium (RPMI) supplemented with 10% fetal bovine serum. They were cultured in flasks or plates in a humidified 5% CO2 atmosphere.
# (§2) Proliferation studies were performed using MOLM-13, MV4-11 and SKM-1 cell lines in vitro to evaluate the cancer cell killing effect of a combination of two agents together on cell growth. Initial proliferation studies were performed to determine the IC50 values of a given compound in each cell line. The cell counts were measured by ATP quantitation using the Promega Cell Titer Glo kit and luminescence values correspond to the amount of ATP in a given well.
# (§3) Compounds evaluated for synergy in the co-treatment phase were tested in a range which was bracketed around the IC50's. The compounds were plated to a 96 well plate in a matrix format which includes increasing concentrations of each drug in the combination in a constant ratio, in addition to the effect of each compound alone in the study. Cells were seeded and grown in the log-linear phase for 3 or 7 days in the cotreatment phase. Maximum and minimum inhibition (DMSO alone) controls were used in each plate to calculate fraction affected (Fa) of a test well. DMSO concentration was kept at 0.1% v/v. The drug combination analysis was performed utilizing the Chou-Talalay method. Synergy was determined using the software package Calcusyn by Biosoft. The combination index (CI) is the term used to describe the level of synergy or antagonism in a given test system. A combination index less than one indicates synergy, and a CI greater than one indicates antagonism.
# (§4) The drug combination analysis was performed using the Chou-Talalay method. Graphs representing values of combination index (CI) versus Fractional effect (Fa) known as Fa-CI plots were generated and synergy was evaluated.
# MOLM-13 (MLL-AF9) cells [2] = assay: as above; format: cell-based, human; conditions: MOLM-13 (MLL-AF9); 7 Day Cotreatment Model
# Description: The acute myelogenous leukemia cell lines MV4-11 (MLL-AF4) and MOLM-13 (MLL-AF9) were obtained from American Type Culture Collection (ATCC; Rockville, Md.) and Deutsche Sammlung von Mikroorganismen and Zellkulturen (DSMZ; Braunschweig, Germany) respectively.
# as §2, with “Studies” for “Proliferation studies”, “MLL-rearranged” for “MOLM-13, MV4-11 and SKM-1”, “anti-proliferative” for “cancer cell killing”, “IC50” for “IC50 values”, “corresponded” for “correspond”
# Compounds were evaluated for synergy in the co-treatment phase by testing the compounds in a concentration range which was bracketed around their IC50 values. The compounds were plated to a 96 well plate in a matrix format (FIG. 3) which includes increasing concentrations of each drug in the combination in a constant ratio, in addition to the effect of each compound alone in the study. Cells were seeded and grown in the log-linear phase for 3 or 7 days in the co-treatment phase. Minimum inhibition (DMSO alone) controls were used in each plate to calculate fraction affected (Fa) of a test well. DMSO concentration was kept at 0.1% v/v.
# The drug combination analysis was performed utilizing the Chou-Talalay method Synergy was determined using the software package Calcusyn by Biosoft. The combination index (CI) is a quantitative term used to describe the level of synergy or antagonism in a given test system. A combination index less than one indicates synergy, and a CI greater than one indicates antagonism. Further, strong synergism is achieved when the CI value falls below 0.3.
# The HP-D300 digital dispenser (Tecan) was used to dispense compounds in a combinatorial matrix. […] Cell viability was measured via ATP content using CellTiter-Glo® (Promega).
# as §1
# Cell viability was measured via ATP content using CellTiter-Glo® (Promega).
# as §2
# These studies were performed to evaluate both the combinatorial effect of compounds on cell killing and the durability of the effect by washing out one of the agents.
# as §3, §4
# MOLM-13 (MLL-AF9) cells [3] = assay: Example 7 primary screen: 300 nM EPZ-5676 pre-treatment, second compound 72 h, ATPLite, GI100 shift; format: cell-based, human; conditions: MOLM-13 (MLL-AF9); 300 nM EPZ-5676 pre-treatment vs DMSO
# Description: (§5) Cells were split using EPZ-5676 or DMSO containing growth media and further incubated for an additional 3-day pre-treatment time. Cells were finally seeded in growth media containing EPZ-5676 or DMSO in 384-well plates at 500 cell/well density. Cells were then equilibrated in incubators for 24 hours before treatment with a second compound. Treated assay plates were incubated with a second compound for 72 hours. After this time, plates were developed for endpoint analysis using ATPLite to measure ATP content, which is used as an indicator of cell viability.
# (§6) “N/D” means the GI100 of the second compound could not be determined for both conditions and “-” means not tested.
# (§7) Growth Inhibition (GI) as a measure of cell viability: The cell viability of vehicle was measured at the time of dosing the second agent (T0) and after seventy-two hours (T72). A GI reading of 0% represents no growth inhibition—cells treated with test compound as compared to T72 vehicle signals were measured. […] A GI 200% represents complete death of all cells in the culture well. Compounds reaching an activity plateau of GI 200% are considered cytotoxic. GI is calculated by applying the following test and equation: […]
# MOLM-13 (MLL-AF9) cells [4] = assay: Example 7 retest: EPZ-5676 pre-treatment, second compound 72 h, Cell Titer Glo, growth inhibition; format: cell-based, human; parameters: GI100: unit not given here; conditions: MOLM-13 (MLL-AF9); for Combination result with EPZ-5676, Retest: 150 nM EPZ-5676 pre-treatment vs DMSO
# Description: (§8) Cells were then treated with a second compound for 72 hours. After this time, plates were developed for endpoint analysis using Cell Titer Glo to measure ATP content, which is used as an indicator of cell viability.
# as §6
# as §7, with “(T72).” for “(T72). A GI reading of 0% represents no growth inhibition—cells treated with test compound as compared to T72 vehicle signals were measured.”
# THP-1 (MLL-AF9) cells = assay: as above; format: cell-based; conditions: NRAS G12D
# Description: as §5, with “96-well plates.” for “384-well plates at 500 cell/well density.”, “treated” for “equilibrated in incubators for 24 hours before treatment with a second compound. Treated assay plates were incubated”, “Cell Titer Glo” for “ATPLite”
# as §6, §7
# [5] = test system: OCI-AML-4 (MLL-ENL) cells; assay: as above; format: cell-based; conditions: OCI-AML-4 (MLL-ENL)
# Description: as §8, §6
# as §7, with “(T72).” for “(T72). A GI reading of 0% represents no growth inhibition—cells treated with test compound as compared to T72 vehicle signals were measured.”
# SKM-1 (non-MLLr) cells = assay: as above; format: cell-based, human; parameters: GI100: unit not given here; conditions: SKM-1 (non-MLLr)
# Description: as §8, §6
# as §7, with “(T72).” for “(T72). A GI reading of 0% represents no growth inhibition—cells treated with test compound as compared to T72 vehicle signals were measured.”
# RS4-11 (MLL-AF4) cells = assay: as above; format: cell-based; parameters: GI100: unit not given here; conditions: RS4-11 (MLL-AF4), Ras mutation status: None known, second compound, 72 h
# Description: as §8, §6
# as §7, with “(T72).” for “(T72). A GI reading of 0% represents no growth inhibition—cells treated with test compound as compared to T72 vehicle signals were measured.”
# ML-2 (MLL-AF6) cells = assay: as above; format: cell-based; parameters: GI100: unit not given here; conditions: ML-2 (MLL-AF6), KRAS A146T (het)
# Description: as §8, §6
# as §7, with “(T72).” for “(T72). A GI reading of 0% represents no growth inhibition—cells treated with test compound as compared to T72 vehicle signals were measured.”
# [6] = 300 nM EPZ-5676 pre-treatment vs DMSO
# [7] = KRAS K117N (homo), second compound, 72 h
structure (smiles),measurement,setting,value
C[C@]12C=CC(=O)C=C1CC[C@@H]1[C@@H]2[C@@H](O)C[C@@]2(C)[C@H]1CC[C@]2(O)C(=O)CO [Prednisolone],Combination effect with Compound A2 (Table 4),MV4-11 (MLL-AF4) cells,antagonism
same,Antiproliferative activity in presence of Compound A2,[1],enhanced antiproliferative activity
same,Combination effect with Compound A2 (Table 4),MOLM-13 (MLL-AF9) cells [2],antagonism
Cn1c(Nc2ccc(C(F)(F)F)cc2)nc2cc(Oc3ccnc(-c4ncc(C(F)(F)F)[nH]4)c3)ccc21 [RAF265],"Combination result with EPZ-5676, Primary screen",MOLM-13 (MLL-AF9) cells [3],Synergy (considered synergistic if the GI100 (Growth inhibition 100) value of the second compound decreased by 2-fold or more when EPZ-5676 was added as compared to the DMSO control)
CNC(=O)c1cc(Oc2ccc(NC(=O)Nc3ccc(Cl)c(C(F)(F)F)c3)cc2)ccn1 [Sorafenib],"Combination result with EPZ-5676, Primary screen",MOLM-13 (MLL-AF9) cells [3],Synergy (considered synergistic if the GI100 (Growth inhibition 100) value of the second compound decreased by 2-fold or more when EPZ-5676 was added as compared to the DMSO control)
same,"Combination result with EPZ-5676, Retest",MOLM-13 (MLL-AF9) cells [4],Synergy (considered synergistic if the GI100 (Growth inhibition 100) value of the second compound decreased by 2-fold or more when EPZ-5676 was added as compared to the DMSO control)
CC(C)Nc1cc(-c2c[nH]c(C(=O)N[C@H](CO)c3cccc(Cl)c3)c2)c(Cl)cn1 [Ulixertinib],GI50,THP-1 (MLL-AF9) cells,810 nM
same,"Combination result with EPZ-5676, Retest",[5]; [6],Synergy (considered synergistic if the GI100 (Growth inhibition 100) value of the second compound decreased by 2-fold or more when EPZ-5676 was added as compared to the DMSO control)
same,Result (combination with EPZ-5676),[5]; NRAS Q61R (het),Synergy (considered synergistic if the GI100 (Growth inhibition 100) value of the second compound decreased by 2-fold or more when EPZ-5676 was added as compared to the DMSO control)
same,GI50,"[5]; NRAS Q61R (het), second compound, 72 h",2100 nM
same,GI50,"MOLM-13 (MLL-AF9) cells [4]; Homo sapiens, Ras mutation status: None known, second compound, 72 h",1670 nM
same,"Combination result with EPZ-5676, Retest",MOLM-13 (MLL-AF9) cells [4],Synergy (considered synergistic if the GI100 (Growth inhibition 100) value of the second compound decreased by 2-fold or more when EPZ-5676 was added as compared to the DMSO control)
same,Result (combination with EPZ-5676),MOLM-13 (MLL-AF9) cells [4]; Ras mutation status: None known,Synergy (considered synergistic if the GI100 (Growth inhibition 100) value of the second compound decreased by 2-fold or more when EPZ-5676 was added as compared to the DMSO control)
same,GI100,"MOLM-13 (MLL-AF9) cells [4]; Ras mutation status: None known, second compound, 72 h",3.96
same,"Combination result with EPZ-5676, Retest",SKM-1 (non-MLLr) cells; [6],Synergy (considered synergistic if the GI100 (Growth inhibition 100) value of the second compound decreased by 2-fold or more when EPZ-5676 was added as compared to the DMSO control)
same,Result (combination with EPZ-5676),SKM-1 (non-MLLr) cells; KRAS K117N (homo),Synergy (considered synergistic if the GI100 (Growth inhibition 100) value of the second compound decreased by 2-fold or more when EPZ-5676 was added as compared to the DMSO control)
same,GI50,SKM-1 (non-MLLr) cells; [7],440 nM
same,GI100,SKM-1 (non-MLLr) cells; [7],1.500
same,GI50,RS4-11 (MLL-AF4) cells; Homo sapiens,> 10000 nM
same,GI100,RS4-11 (MLL-AF4) cells,>10
same,Result (combination with EPZ-5676),ML-2 (MLL-AF6) cells,Synergy (considered synergistic if the GI100 (Growth inhibition 100) value of the second compound decreased by 2-fold or more when EPZ-5676 was added as compared to the DMSO control)
same,GI50,"ML-2 (MLL-AF6) cells; second compound, 72 h",630 nM
same,GI100,"ML-2 (MLL-AF6) cells; second compound, 72 h",2.711
